According to patent US20040028714A1, “Composition having insect repellent characteristics” (priority 2000, published 2004):
“And” between values parts separate entries of the source, which are not always exact repeats. Equal values may be shown once.

Columns and labels:
Format in all cases: in vivo
[1] = system: Black Ants (Ochetellus sp); experiment: Ant repellency on half-treated formica (Example 4); details: ants, 20 mg/m^2 on formica
Protocol: The effectiveness of compound 2 (example 1) as an insect repellent was determined using ants exposed to a formica surface partially treated/partially untreated with compound 2, and was directly compared to the repellency of the well known insect repellents Farnesol and Dihydrofarnesal.
The study was conducted in an air conditioned laboratory at a temperature of 22°±2° C. under a normal day/night cycle, using Black Ants (Ochetellus sp) of mixed sex and age. The study ws conducted over a 3 day period and the repellent effectiveness assessed 1, 2 and 3 days after ant introduction.
One half of a rectangle of formica 40 cm×30 cm was treated at 20 mg/m^2 with the test compounds. This was achieved by soaking a paper wipe (Rag On A Roll approximately 20 cm×20 cm) in a solution of the test compound in ethanol, squeezing out the excess liquid and wiping over the surface to give the required coverage. This was checked by weighing the cloth after application. The surface was allowed to dry. The other half was wiped with ethanol alone (untreated surface).
The treated formica rectangle was placed on the bench and a glass ring (diameter 20 cm) was placed on the rectangle. This had been treated with fluon to prevent ant escape.
A small plastic container 2 cm in diameter was placed on the formica, one on the treated surface and one on the untreated surface. The plastic container placed on the treated surface had repellent applied in the same way as the treated formica. The plastic container on the untreated surface was wiped with ethanol.
24 hours after treatment (1 day) 20 ants were added to the centre of the formica. No food and water was supplied for these ants. 2 hours after this the number of ants on the treated and untreated surfaces was counted.
The above was repeated 3 times to provide a total of 4 replicates.
The above was repeated at 2 days and 3 days. New ants were used at each time period.

[2] = system: Casemaking Clothes Moths (Tinea pellionella); experiment: Adult clothes moth repellency on treated woolen cloth (Example 5); details: fabric soaked in 20 g/L in ethanol, 2 days after moth introduction; for Moths Present, Treated Section, Total (%) / Moths Present, Untreated Section, Total (%): share of moths found in the two boxes; for The Number of Moths Present, Treated Section / The Number of Moths Present, Untreated Section: single replicates (n = 50); for The Number of Moths Present, Treated Section, Total / The Number of Moths Present, Untreated Section, Total: total of 4 replicates
Protocol: The effectiveness of compound 2 (example 1) to reduce the presence of cloth moths on woolen cloth was determined and was directly compared to the repellency of the well known moth repellents Citronellol and Farnesol.
The study was conducted in an air conditioned laboratory at a temperature of 22°±2° C. under a normal day/night cycle, using Casemaking Clothes Moths (Tinea pellionella) of mixed sex and age. The study is conducted over a 5 days period and the repellent effectiveness was assessed as follows:
Adults—2 days after insect introduction
A 10 cm×10 cm square of black woolen fabric free of bactericide) was soaked in a solution of the candidate repellent in ethanol at 20 g/L, squeezed and allowed to dry. The woollen square was placed in a small box (5 cm×10 cm×10 cm) which was open at one end to allow entry of adult clothes moth.
A similar square of fabric treated with ethanol (control) was placed in another box of the same size.
These two boxes were placed in an aquarium and 50 mixed sex adult moths were added. These were provided with food and water and left for 5 days.
At the end of 2 days the number of adult moths in each box was counted.
The above was repeated 3 times to provide 4 replicates.

[3] = system: German cockroaches (Blatella Germanica); experiment: Cockroach repellency in tray with half-treated vinyl, compared with DEET and N-methyl-neodecanamide (Example 3); details: cockroaches, 20 mg/m^2 on vinyl
Protocol: The effectiveness of compound 2 (example 1) as an insect repellent was determined using German cockroaches exposed to a formica surface partially treated/partially un-treated, and was directly compared to the repellency of the well known insect repellents DEET (N,N-diethyl-meta-toluamide) and N-methyl-neodecanamide. The study was conducted in an air conditioned laboratory at a temperature of 22°±2° C. under a normal day/night cycle, using German cockroaches (Blatella Germanica) of mixed sex and age. The study was conducted over a 7 days period and the repellent effectiveness was assessed 1, 3, 5 and 7 days after cockroach introduction. Each tray used in the study consisted of a melamine square tray of sides 1.8m×1.8m and 20 cm high walls. The upper part of the wall was provided with electrical strip, which prevented cockroaches escaping. A square of vinyl 90 cm×180 cm was treated with the test compound at 20 mg/m^2. This was achieved by soaking a paper wipe (Rag on a Roll, ca. 20 cm×20 cm) in a solution of the test compound in ethanol, squeezing out the excess liquid and wiping over the surface to give the required coverage. This was checked by weighing the cloth after application. The surface was allowed to dry. The treated vinyl square was placed in one half of the tray. A similar untreated square was placed in the other half of the tray. This square was treated with ethanol alone. Two sheets of formica (30 cm×30 cm) were placed at one corner of each tray, one on the treated surface and one on the untreated surface. This acted as a cockroach harbourage. The formica sheet to be used in the treated section was treated at the same rate as the treated formica. The formica was placed on two 1 cm high bottle tops to allow cockroaches access under the formica. 50 German cockroaches were added (15 adults and 35 nymphs) to the middle of the tray. No food and water was supplied for these cockroaches. At 1, 2, 3 and 7 days after cockroach introduction the number of cockroaches under each harbourage was counted. After each count the harbourage position was change to avoid the possibility of habituation to one location, the harbourages were replaced and new cockroaches were added to replace any dead cockroaches. The above was repeated 3 times to provide a total of 4 replicates.

CC(C)=CCCC(C)=CCCC(C)=CCO [Farnesol, 3,7,11-Trimethyl-2,6,10-dodecatrien-1-ol]
Percentage Dead ([1]; 1 day after treatment): 0% | Percentage Present, Treated Section ([1]; 1 day after treatment): 20.0% | Percentage Present, Untreated Section ([1]; 1 day after treatment): 80.0% | Percentage Dead ([1]; 2 days after treatment): 0% | Percentage Present, Treated Section ([1]; 2 days after treatment): 10.0% | Percentage Present, Untreated Section ([1]; 2 days after treatment): 90.0% | Percentage Dead ([1]; 3 days after treatment): 0% | Percentage Present, Treated Section ([1]; 3 days after treatment): 20.0% | Percentage Present, Untreated Section ([1]; 3 days after treatment): 80.0% | Percentage Dead, Average ([1]; average of days 1, 2 and 3): 0% | Percentage Present, Untreated Section, Average ([1]; average of days 1, 2 and 3): 83.3% | Moths Present, Treated Section, Total (%) [2]: (26.0%) | Moths Present, Untreated Section, Total (%) [2]: (74.0%) | The Number of Moths Present, Treated Section [2]: 9 (2×) and 4 and 5 | The Number of Moths Present, Untreated Section [2]: 18 and 19 (2×) and 21 | The Number of Moths Present, Treated Section, Total [2]: 27 | The Number of Moths Present, Untreated Section, Total [2]: 77

CCN(CC)C(=O)c1cccc(C)c1 [DEET, N,N-diethyl-meta-toluamide, reference compound]
Percentage Dead ([3]; 1 day after treatment): 0.5% | Percentage Present, Treated Section ([3]; 1 day after treatment): 3.0% | Percentage Present, Untreated Section ([3]; 1 day after treatment): 96.5% | Percentage Dead ([3]; 2 days after treatment): 1.5% | Percentage Present, Treated Section ([3]; 2 days after treatment): 2.5% | Percentage Present, Untreated Section ([3]; 2 days after treatment): 96.0% | Percentage Dead ([3]; 3 days after treatment): 0.5% | Percentage Present, Treated Section ([3]; 3 days after treatment): 27.5% | Percentage Present, Untreated Section ([3]; 3 days after treatment): 72.0% | Percentage Dead ([3]; 7 days after treatment): 1.0% | Percentage Present, Treated Section ([3]; 7 days after treatment): 55.0% | Percentage Present, Untreated Section ([3]; 7 days after treatment): 44.0%

CC(C)=CCCC(C)CCO (centres unmarked) [Citronellol]
Moths Present, Treated Section, Total (%) [2]: (23.9%) | Moths Present, Untreated Section, Total (%) [2]: (76.1%) | The Number of Moths Present, Treated Section [2]: 7 and 0 and 5 and 14 | The Number of Moths Present, Untreated Section [2]: 20 and 12 and 26 and 25 | The Number of Moths Present, Treated Section, Total [2]: 26 | The Number of Moths Present, Untreated Section, Total [2]: 83
